In PubChem BioAssay AID1259407 (Chemical Carcinogenesis Research Information System (CCRIS), 2018) one finds mutagenic call data, which are given here for four compounds.

The source made the active and inactive calls. How the calls were made is not given here.

This series deals with CCRIS mutagenicity, Ames/micronucleus/aberration tests. Description: CCRIS mutagenicity studies.
[1] abbreviates: Test System: AMES SALMONELLA TYPHIMURIUM, Strain/Indicator: TA98, Metabolic Activation: NONE, Method: PREINCUBATION
Setting [2] is: Test System: AMES SALMONELLA TYPHIMURIUM, Strain/Indicator: TA100, Metabolic Activation: NONE, Method: PREINCUBATION
[3] abbreviates: Test System: AMES SALMONELLA TYPHIMURIUM, Strain/Indicator: TA100, Metabolic Activation: RAT, LIVER, S-9, AROCLOR 1254, Method: STANDARD PLATE.
[4] abbreviates: Test System: AMES SALMONELLA TYPHIMURIUM, Strain/Indicator: TA1535, Metabolic Activation: NONE, Method: PREINCUBATION
Where [5] appears, read: Test System: AMES SALMONELLA TYPHIMURIUM, Strain/Indicator: TA1535, Metabolic Activation: NONE, Method: STANDARD PLATE.
The mark [6] stands for this setting: Test System: AMES SALMONELLA TYPHIMURIUM, Strain/Indicator: TA1537, Metabolic Activation: NONE, Method: PREINCUBATION
[7] abbreviates: Test System: Mouse lymphoma, Strain/Indicator: L5178Y (tk+/tk-), Metabolic Activation: Rat, Liver, S-9, Aroclor 1254, Method: Suspension/plate.

`CC(=O)OC(C)=O`: the mutagenic call (Test System: AMES SALMONELLA TYPHIMURIUM, Strain/Indicator: TA98, Metabolic Activation: HAMSTER, LIVER, S-9, AROCLOR 1254, Method: STANDARD PLATE) is “inactive; negative”; the mutagenic call under setting [1] was “inactive; negative”; the mutagenic call (Test System: AMES SALMONELLA TYPHIMURIUM, Strain/Indicator: TA98, Metabolic Activation: NONE, Method: STANDARD PLATE) is “inactive; negative”; the mutagenic call (Test System: AMES SALMONELLA TYPHIMURIUM, Strain/Indicator: TA98, Metabolic Activation: RAT, LIVER, S-9, AROCLOR 1254, Method: STANDARD PLATE) was “inactive; negative”; the mutagenic call (Test System: AMES SALMONELLA TYPHIMURIUM, Strain/Indicator: TA98, Metabolic Activation: RAT, LIVER, S-9, SODIUM PHENOBARBITAL AND 5,6-BENZOFLAVONE, Method: PREINCUBATION) was “inactive; negative”; the mutagenic call (Test System: AMES SALMONELLA TYPHIMURIUM, Strain/Indicator: TA100, Metabolic Activation: HAMSTER, LIVER, S-9, AROCLOR 1254, Method: STANDARD PLATE) was “inactive; negative”. In addition, the mutagenic call is “inactive; negative” under setting [2]; “inactive; negative” (Test System: AMES SALMONELLA TYPHIMURIUM, Strain/Indicator: TA100, Metabolic Activation: NONE, Method: STANDARD PLATE); “inactive; negative” under setting [3]; “inactive; negative” (Test System: AMES SALMONELLA TYPHIMURIUM, Strain/Indicator: TA100, Metabolic Activation: RAT, LIVER, S-9, SODIUM PHENOBARBITAL AND 5,6-BENZOFLAVONE, Method: PREINCUBATION); “inactive; negative” (Test System: AMES SALMONELLA TYPHIMURIUM, Strain/Indicator: TA102, Metabolic Activation: NONE, Method: PREINCUBATION); “inactive; negative” (Test System: AMES SALMONELLA TYPHIMURIUM, Strain/Indicator: TA102, Metabolic Activation: RAT, LIVER, S-9, SODIUM PHENOBARBITAL AND 5,6-BENZOFLAVONE, Method: PREINCUBATION). In addition, the mutagenic call is “inactive; negative” (Test System: AMES SALMONELLA TYPHIMURIUM, Strain/Indicator: TA104, Metabolic Activation: NONE, Method: PREINCUBATION); “inactive; negative” (Test System: AMES SALMONELLA TYPHIMURIUM, Strain/Indicator: TA104, Metabolic Activation: RAT, LIVER, S-9, SODIUM PHENOBARBITAL AND 5,6-BENZOFLAVONE, Method: PREINCUBATION); “inactive; negative” (Test System: AMES SALMONELLA TYPHIMURIUM, Strain/Indicator: TA1535, Metabolic Activation: HAMSTER, LIVER, S-9, AROCLOR 1254, Method: STANDARD PLATE); “inactive; negative” under setting [4]; “inactive; negative” under setting [5]; “inactive; negative” (Test System: AMES SALMONELLA TYPHIMURIUM, Strain/Indicator: TA1535, Metabolic Activation: RAT, LIVER, S-9, AROCLOR 1254, Method: STANDARD PLATE). In addition, the mutagenic call is, setting by setting: (Test System: AMES SALMONELLA TYPHIMURIUM, Strain/Indicator: TA1535, Metabolic Activation: RAT, LIVER, S-9, SODIUM PHENOBARBITAL AND 5,6-BENZOFLAVONE, Method: PREINCUBATION) “inactive; negative”; (Test System: AMES SALMONELLA TYPHIMURIUM, Strain/Indicator: TA1537, Metabolic Activation: HAMSTER, LIVER, S-9, AROCLOR 1254, Method: STANDARD PLATE) “inactive; negative”; under setting [6], “inactive; negative”; (Test System: AMES SALMONELLA TYPHIMURIUM, Strain/Indicator: TA1537, Metabolic Activation: NONE, Method: STANDARD PLATE) “inactive; negative”; (Test System: AMES SALMONELLA TYPHIMURIUM, Strain/Indicator: TA1537, Metabolic Activation: RAT, LIVER, S-9, AROCLOR 1254, Method: STANDARD PLATE) “inactive; negative”; (Test System: AMES SALMONELLA TYPHIMURIUM, Strain/Indicator: TA1537, Metabolic Activation: RAT, LIVER, S-9, SODIUM PHENOBARBITAL AND 5,6-BENZOFLAVONE, Method: PREINCUBATION) “inactive; negative”. Further, the mutagenic call was “inactive; negative” (Test System: AMES SALMONELLA TYPHIMURIUM, Strain/Indicator: TA1538, Metabolic Activation: HAMSTER, LIVER, S-9, AROCLOR 1254, Method: STANDARD PLATE); “inactive; negative” (Test System: AMES SALMONELLA TYPHIMURIUM, Strain/Indicator: TA1538, Metabolic Activation: NONE, Method: STANDARD PLATE); “inactive; negative” (Test System: AMES SALMONELLA TYPHIMURIUM, Strain/Indicator: TA1538, Metabolic Activation: RAT, LIVER, S-9, AROCLOR 1254, Method: STANDARD PLATE); “inactive; negative” (Test System: E. COLI, Strain/Indicator: WP2UVRA/PKM101, Metabolic Activation: NONE, Method: PREINCUBATION); “inactive; negative” (Test System: E. COLI, Strain/Indicator: WP2UVRA/PKM101, Metabolic Activation: RAT, LIVER, S-9, SODIUM PHENOBARBITAL AND 5,6-BENZOFLAVONE, Method: PREINCUBATION); “inactive; negative” (Test System: E. COLI, Strain/Indicator: WP2UVRA, Metabolic Activation: NONE, Method: PREINCUBATION). The mutagenic call runs as follows: (Test System: E. COLI, Strain/Indicator: WP2UVRA, Metabolic Activation: RAT, LIVER, S-9, SODIUM PHENOBARBITAL AND 5,6-BENZOFLAVONE, Method: PREINCUBATION) “inactive; negative”; (Test System: MOUSE LYMPHOMA, Strain/Indicator: L5178Y (TK+/TK-), Metabolic Activation: NONE, Method: SUSPENSION/PLATE) “inactive; negative. reevaluation of results: inconclusive”; under setting [7], “inactive; inconclusive (previous evaluation negative)”.

`CCCCN(N=O)/C(C=O)=N/O`: the mutagenic call reads like this: under setting [5], “active; positive”; (Test System: E. COLI, Strain/Indicator: WP2 (HCR-), Metabolic Activation: NONE, Method: STANDARD PLATE) “active; positive”.

As to `c1ccc2c(c1)ccc1ccc3c(c12)CCC3`, under setting [3], the mutagenic call was “active; positive”.

In the case of `Nc1ccccc1C(=O)O`, the mutagenic call reads like this: (Test System: AMES SALMONELLA TYPHIMURIUM, Strain/Indicator: TA98, Metabolic Activation: HAMSTER, LIVER, S-9, AROCLOR 1254 (10%), Method: PREINCUBATION) “inactive; negative”; under setting [1], “inactive; negative”; (Test System: AMES SALMONELLA TYPHIMURIUM, Strain/Indicator: TA98, Metabolic Activation: RAT, LIVER, S-9, AROCLOR 1254 (10%), Method: PREINCUBATION) “inactive; negative”; (Test System: AMES SALMONELLA TYPHIMURIUM, Strain/Indicator: TA100, Metabolic Activation: HAMSTER, LIVER, S-9, AROCLOR 1254 (10%), Method: PREINCUBATION) “inactive; negative”; under setting [2], “inactive; negative”; (Test System: AMES SALMONELLA TYPHIMURIUM, Strain/Indicator: TA100, Metabolic Activation: RAT, LIVER, S-9, AROCLOR 1254 (10%), Method: PREINCUBATION) “inactive; negative”. Besides, the mutagenic call (Test System: AMES SALMONELLA TYPHIMURIUM, Strain/Indicator: TA1535, Metabolic Activation: HAMSTER, LIVER, S-9, AROCLOR 1254 (10%), Method: PREINCUBATION) was “inactive; negative”; the mutagenic call under setting [4] is “inactive; negative”; the mutagenic call (Test System: AMES SALMONELLA TYPHIMURIUM, Strain/Indicator: TA1535, Metabolic Activation: RAT, LIVER, S-9, AROCLOR 1254 (10%), Method: PREINCUBATION) is “inactive; negative”; the mutagenic call (Test System: AMES SALMONELLA TYPHIMURIUM, Strain/Indicator: TA1537, Metabolic Activation: HAMSTER, LIVER, S-9, AROCLOR 1254 (10%), Method: PREINCUBATION) is “inactive; negative”; the mutagenic call under setting [6] was “inactive; negative”; the mutagenic call (Test System: AMES SALMONELLA TYPHIMURIUM, Strain/Indicator: TA1537, Metabolic Activation: RAT, LIVER, S-9, AROCLOR 1254 (10%), Method: PREINCUBATION) was “inactive; negative”. In addition, the mutagenic call (Test System: CHINESE HAMSTER OVARY, Strain/Indicator: CHO-K1-BH4 (HGPRT)/6-THIOGUANINE, Metabolic Activation: NONE) is “inactive; negative”; the mutagenic call (Test System: CHINESE HAMSTER OVARY, Strain/Indicator: CHO-K1-BH4 (HGPRT)/6-THIOGUANINE, Metabolic Activation: S-9) is “inactive; negative”; the mutagenic call (Test System: MOUSE LYMPHOMA, Strain/Indicator: L5178Y (TK+/TK-), Metabolic Activation: RAT, LIVER, S-9, AROCLOR 1254, Method: SUSPENSION/PLATE) was “active; positive”; the mutagenic call (Test System: Mouse lymphoma, Strain/Indicator: L5178Y (tk+/tk-), Metabolic Activation: None, Method: Suspension/plate) is “inactive; negative”; the mutagenic call under setting [7] is “active; positive”.
